Ki data for seven molecules are collected here from BindingDB's records for doi:10.1016/s0196-9781(98)00133-8 (Synaptic Pharmaceutical, 1998).

In one assay the target is T1, Galanin receptor type 2 (Homo sapiens, UniProt O43603).
T1 sequence (O43603 whole entry): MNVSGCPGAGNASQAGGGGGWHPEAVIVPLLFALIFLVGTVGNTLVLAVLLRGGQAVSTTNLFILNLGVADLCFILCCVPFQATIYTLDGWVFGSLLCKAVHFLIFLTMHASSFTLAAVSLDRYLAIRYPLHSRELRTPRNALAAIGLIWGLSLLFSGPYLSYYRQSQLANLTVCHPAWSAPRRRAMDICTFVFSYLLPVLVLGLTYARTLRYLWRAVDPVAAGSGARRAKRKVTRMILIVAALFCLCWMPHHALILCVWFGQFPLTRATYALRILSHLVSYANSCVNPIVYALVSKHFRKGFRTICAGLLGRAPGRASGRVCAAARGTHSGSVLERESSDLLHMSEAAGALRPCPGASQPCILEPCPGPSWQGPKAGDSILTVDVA

Another assay addresses T2, Galanin receptor type 3 (Homo sapiens, UniProt O60755).
T2 sequence (O60755 whole entry): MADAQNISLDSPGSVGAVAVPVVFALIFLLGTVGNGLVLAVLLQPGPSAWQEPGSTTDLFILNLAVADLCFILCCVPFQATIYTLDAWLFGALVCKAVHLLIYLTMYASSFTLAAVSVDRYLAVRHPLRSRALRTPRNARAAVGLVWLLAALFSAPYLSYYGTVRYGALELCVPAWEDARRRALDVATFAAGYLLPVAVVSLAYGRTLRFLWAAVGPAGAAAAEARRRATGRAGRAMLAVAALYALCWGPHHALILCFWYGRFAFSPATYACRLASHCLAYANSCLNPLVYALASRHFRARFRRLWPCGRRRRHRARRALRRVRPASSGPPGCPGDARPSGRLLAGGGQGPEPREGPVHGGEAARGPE

Non-standard residues stand in square brackets, D forms with d. Residues, ends and D or L forms follow the SMILES beside them.

As for `CC(C)C[C@H](NC(=O)[C@H](CC(C)C)NC(=O)[C@H](Cc1ccc(O)cc1)NC(=O)CNC(=O)[C@H](C)NC(=O)[C@H](CO)NC(=O)[C@H](CC(N)=O)NC(=O)[C@H](CC(C)C)NC(=O)[C@@H](NC(=O)[C@H](Cc1c[nH]c2ccccc12)NC(=O)CN)[C@@H](C)O)C(=O)NCC(=O)N1CCC[C@H]1C(=O)N1CCC[C@H]1C(=O)N1CCC[C@H]1C(=O)NCC(=O)N[C@@H](Cc1ccccc1)C(=O)N[C@@H](CO)C(=O)N1CCC[C@H]1C(=O)N[C@@H](Cc1ccccc1)C(=O)N[C@@H](CCCN=C(N)N)C(N)=O`, the Ki (usually the equilibrium dissociation constant of an inhibitor or competing ligand from its target) on Galanin receptor type 2 worked out at 1.95 nM.
Same read-out and setting: under `COc1ccccc1N(CCOc1ccc(C)cc1)C(=O)CN1CCCCC1` [CAS_3043476] stands 1.07 nM; under `CC(C)C[C@H](NC(=O)[C@H](CC(C)C)NC(=O)[C@@H](Cc1c[nH]c2ccccc12)NC(=O)[C@H](Cc1ccccc1)NC(=O)[C@@H](Cc1c[nH]c2ccccc12)NC(=O)[C@H](CCC(N)=O)NC(=O)[C@H](CCC(N)=O)NC(=O)[C@@H]1CCCN1C(=O)[C@H](CCCCN)NC(=O)[C@@H]1CCCN1C(=O)[C@@H](CCCN=C(N)N)NC(=O)[C@@H]1CCCN1C(=O)CNC(=O)[C@H](CC(C)C)NC(=O)[C@H](CC(C)C)NC(=O)[C@H](Cc1ccc(O)cc1)NC(=O)CNC(=O)[C@H](C)NC(=O)[C@H](CO)NC(=O)[C@H](CC(N)=O)NC(=O)[C@H](CC(C)C)NC(=O)[C@@H](NC(=O)[C@H](Cc1c[nH]c2ccccc12)NC(=O)CN)[C@@H](C)O)C(N)=O` [Gal(1-13)-Std I] (H-GWTLNSAGYLLGP[dR]PKPQQ[dW]F[dW]LL-NH2), 0.63 nM.
Still for that read-out and setting: under `CC[C@H](C)[C@H](NC(=O)[C@H](C)NC(=O)[C@H](Cc1c[nH]cn1)NC(=O)[C@@H]1CCCN1C(=O)CNC(=O)[C@H](CC(C)C)NC(=O)[C@H](CC(C)C)NC(=O)[C@H](Cc1ccc(O)cc1)NC(=O)CNC(=O)[C@H](C)NC(=O)[C@H](CO)NC(=O)[C@H](CC(N)=O)NC(=O)[C@H](CC(C)C)NC(=O)[C@@H](N)[C@@H](C)O)C(=O)N[C@@H](CC(=O)O)C(=O)N[C@@H](CC(N)=O)C(=O)N[C@@H](Cc1c[nH]cn1)C(=O)N[C@@H](CCCNC(=N)N)C(=O)N[C@@H](CO)C(=O)N[C@@H](Cc1ccccc1)C(=O)N[C@@H](Cc1c[nH]cn1)C(=O)N[C@@H](CC(=O)O)C(=O)N[C@@H](CCCCN)C(=O)N[C@@H](Cc1ccc(O)cc1)C(=O)NCC(=O)N[C@@H](CC(C)C)C(=O)N[C@@H](C)C(N)=O` [Galanin (3-29), porcine] stands 1000 nM.
`CC[C@H](C)[C@H](NC(=O)[C@H](C)NC(=O)[C@H](Cc1c[nH]cn1)NC(=O)[C@@H]1CCCN1C(=O)CNC(=O)[C@H](CC(C)C)NC(=O)[C@H](CC(C)C)NC(=O)[C@H](Cc1ccc(O)cc1)NC(=O)CNC(=O)[C@H](C)NC(=O)[C@H](CO)NC(=O)[C@H](CC(N)=O)NC(=O)[C@H](CC(C)C)NC(=O)[C@@H](NC(=O)[C@@H](N)Cc1c[nH]c2ccccc12)[C@@H](C)O)C(=O)N[C@@H](CC(=O)O)C(=O)N[C@@H](CC(N)=O)C(=O)N[C@@H](Cc1c[nH]cn1)C(=O)N[C@@H](CCCNC(=N)N)C(=O)N[C@@H](CO)C(=O)N[C@@H](Cc1ccccc1)C(=O)N[C@@H](CO)C(=O)N[C@@H](CC(=O)O)C(=O)N[C@@H](CCCCN)C(=O)N[C@@H](Cc1c[nH]cn1)C(=O)NCC(=O)N[C@@H](CC(C)C)C(=O)N[C@H](C(N)=O)[C@@H](C)O` [Galanin Porcine 2-29]: the results for the Ki on Galanin receptor type 2 and at Galanin receptor type 3 were 2.88 nM and 60.3 nM, respectively.
Consider `CC[C@H](C)[C@H](NC(=O)[C@H](C)NC(=O)[C@H](Cc1cnc[nH]1)NC(=O)[C@@H]1CCCN1C(=O)CNC(=O)[C@H](CC(C)C)NC(=O)[C@H](CC(C)C)NC(=O)[C@H](Cc1ccc(O)cc1)NC(=O)CNC(=O)[C@H](C)NC(=O)[C@H](CO)NC(=O)[C@H](CC(N)=O)NC(=O)[C@H](CC(C)C)NC(=O)[C@@H](NC(=O)[C@H](Cc1c[nH]c2ccccc12)NC(=O)CN)[C@@H](C)O)C(=O)N[C@@H](CC(=O)O)C(=O)N[C@@H](CC(N)=O)C(=O)N[C@@H](Cc1cnc[nH]1)C(N)=O` [Galanin rat], for which the Ki at Galanin receptor type 2 stood at 1.62 nM.
Still for that read-out and setting: under H-GWTLNSAGYLLGPPPALALA-NH2 [M40] stands 4.07 nM.
